# Measurements from ChEMBL document CHEMBL1201862, “PubChem BioAssay data set” (2004).
#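 Tested at 5 concentrations; 48 h exposure; 96-well plates; endpoints linearly interpolated, else capped at highest concentration. GI50 is the concentration that inhibits growth by half.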 Active and inactive are the calls of the source. Rule as the data show it: active = GI50 up to about 1.1 µM and inactive = higher.
# Experiments:
# Experiment in all cases: NCI-60 cell line screen, 48 h
# CCRF-CEM = tested on: CCRF-CEM
# SNB-19 = tested on: SNB-19
# SNB-75 = tested on: SNB-75
# SN12C = tested on: SN12C
# EKVX = tested on: EKVX
# HCT-116 = tested on: HCT-116
# NCI-H23 = tested on: NCI-H23
# HT-29 = tested on: HT-29
# DU-145 = tested on: DU-145
# OVCAR-5 = tested on: OVCAR-5
# MDA-N = tested on: MDA-N
# SK-OV-3 = tested on: SK-OV-3
# HOP-62 = tested on: HOP-62
# OVCAR-8 = tested on: OVCAR-8
# A549 = tested on: A549
# M14 = tested on: M14
# LOX IMVI = tested on: LOX IMVI
# SR = tested on: SR
# PC-3 = tested on: PC-3
Structure (SMILES),GI50 (CCRF-CEM),GI50 (SNB-19),GI50 (SNB-75),GI50 (SN12C),GI50 (EKVX),GI50 (HCT-116),GI50 (NCI-H23),GI50 (HT-29),GI50 (DU-145),GI50 (OVCAR-5),GI50 (MDA-N),GI50 (SK-OV-3),GI50 (HOP-62),GI50 (OVCAR-8),GI50 (A549),GI50 (M14),GI50 (LOX IMVI),GI50 (SR),GI50 (PC-3)
CC(=O)Nc1ccc(C(=O)NN2C(=O)CSC2c2ccc(O)cc2)cc1 (stereo not given),> 100 µM (inactive),> 100 µM (inactive),91.6 µM (inactive),> 100 µM (inactive),> 100 µM (inactive),> 100 µM (inactive),> 100 µM (inactive),> 100 µM (inactive),> 100 µM (inactive),> 100 µM (inactive),> 100 µM (inactive),> 100 µM (inactive),> 100 µM (inactive),> 100 µM (inactive),> 100 µM (inactive),> 100 µM (inactive),,,
CCOC(=O)Cn1c(=O)ccn(COCCO)c1=O,> 100 µM (inactive),> 100 µM (inactive),> 100 µM (inactive),> 100 µM (inactive),> 100 µM (inactive),,> 100 µM (inactive),> 100 µM (inactive),> 100 µM (inactive),> 100 µM (inactive),> 100 µM (inactive),,> 100 µM (inactive),> 100 µM (inactive),> 100 µM (inactive),> 100 µM (inactive),> 100 µM (inactive),> 10 µM (inactive),> 100 µM (inactive)
CC(=O)OCC1OC(N2C(C)=C(C(C)=O)C(c3ccco3)C(C#N)=C2S)C(OC(C)=O)C(OC(C)=O)C1OC(C)=O (stereo not given),> 100 µM (inactive),> 100 µM (inactive),> 100 µM (inactive),> 100 µM (inactive),,> 100 µM (inactive),> 100 µM (inactive),> 100 µM (inactive),> 100 µM (inactive),> 100 µM (inactive),> 100 µM (inactive),,> 100 µM (inactive),> 100 µM (inactive),> 100 µM (inactive),> 100 µM (inactive),> 100 µM (inactive),95.3 µM (inactive),> 100 µM (inactive)
CC1NC(=O)C2Cc3ccc(O)c(c3)Oc3ccc(cc3)C(O)C(C(=O)N2C)N(C)C(=O)C(C)NC(=O)C(Cc2ccc(O)cc2)N(C)C(=O)C(C)NC1=O (stereo not given),9.71 µM (inactive),13.8 µM (inactive),3.67 µM (inactive),> 10 µM (inactive),57 µM (inactive),9.64 µM (inactive),29.2 µM (inactive),19.2 µM (inactive),32.4 µM (inactive),42.6 µM (inactive),13.1 µM (inactive),,34.7 µM (inactive),24.7 µM (inactive),41 µM (inactive),63.2 µM (inactive),5.43 µM (inactive),10.7 µM (inactive),23.8 µM (inactive)
CCCCCc1cc2c(cc1O)CC[C@@H]1[C@@H]2CC[C@]2(C)[C@@H](O)CC[C@@H]12,35.3 µM (inactive),18.8 µM (inactive),13.5 µM (inactive),16.2 µM (inactive),17.9 µM (inactive),17.3 µM (inactive),21.3 µM (inactive),20 µM (inactive),16.4 µM (inactive),18.8 µM (inactive),17.9 µM (inactive),21.8 µM (inactive),22.4 µM (inactive),20.1 µM (inactive),19.3 µM (inactive),14.9 µM (inactive),18.2 µM (inactive),,16.6 µM (inactive)
COc1ccc(C2SCC(=O)N2NC2=NC(=O)CC(=O)N2)cc1 (stereo not given),> 100 µM (inactive),,> 100 µM (inactive),> 100 µM (inactive),,> 100 µM (inactive),> 100 µM (inactive),> 100 µM (inactive),> 100 µM (inactive),> 100 µM (inactive),> 100 µM (inactive),> 100 µM (inactive),> 100 µM (inactive),> 100 µM (inactive),> 100 µM (inactive),> 100 µM (inactive),,> 100 µM (inactive),> 100 µM (inactive)
CC(=O)Nc1cc2cc(N)ccc2oc1=O,> 100 µM (inactive),> 100 µM (inactive),,> 100 µM (inactive),> 100 µM (inactive),> 100 µM (inactive),> 100 µM (inactive),> 100 µM (inactive),> 100 µM (inactive),> 100 µM (inactive),> 100 µM (inactive),,> 100 µM (inactive),> 100 µM (inactive),> 100 µM (inactive),> 100 µM (inactive),> 100 µM (inactive),> 100 µM (inactive),> 100 µM (inactive)
COc1cc(C(=O)Nc2c3ccccc3nc3ccccc23)cc(OC)c1OC,20.5 µM (inactive),> 95.1 µM (inactive),0.885 µM (active),> 100 µM (inactive),> 59 µM (inactive),> 67.1 µM (inactive),> 100 µM (inactive),> 100 µM (inactive),> 100 µM (inactive),> 100 µM (inactive),30 µM (inactive),> 100 µM (inactive),> 36.3 µM (inactive),> 59.7 µM (inactive),> 100 µM (inactive),> 53.6 µM (inactive),> 100 µM (inactive),,> 100 µM (inactive)
COc1cc2c3cc1Oc1cc(ccc1O)C[C@@H]1c4c(cc(OC)c(O)c4Oc4ccc(cc4)C[C@@H]3N(C)CC2)CC[N+]1(C)C,,> 100 µM (inactive),,> 100 µM (inactive),> 100 µM (inactive),48.4 µM (inactive),52 µM (inactive),46.5 µM (inactive),42 µM (inactive),> 100 µM (inactive),> 100 µM (inactive),,6.95 µM (inactive),58.7 µM (inactive),> 100 µM (inactive),16.8 µM (inactive),17.8 µM (inactive),24.8 µM (inactive),21.9 µM (inactive)
O=C1C(Cl)=C(NCCc2ccc(O)cc2)C(=O)c2c(O)ccc(O)c21,4.34 µM (inactive),> 10 µM (inactive),> 10 µM (inactive),> 10 µM (inactive),> 10 µM (inactive),8.2 µM (inactive),> 10 µM (inactive),4.27 µM (inactive),> 10 µM (inactive),> 10 µM (inactive),> 10 µM (inactive),> 10 µM (inactive),6.56 µM (inactive),> 10 µM (inactive),> 10 µM (inactive),> 10 µM (inactive),7.66 µM (inactive),,> 10 µM (inactive)
O=[N+]([O-])c1ccc(-c2ccc([C@H]3CC(c4cc(F)c(Cl)cc4Cl)=NN3)o2)cc1,1.06 µM (active),> 100 µM (inactive),15.1 µM (inactive),24.3 µM (inactive),> 100 µM (inactive),29.6 µM (inactive),2.3 µM (inactive),37.4 µM (inactive),26.9 µM (inactive),> 100 µM (inactive),36.1 µM (inactive),39.2 µM (inactive),17 µM (inactive),10.8 µM (inactive),,13.3 µM (inactive),3.63 µM (inactive),0.621 µM (active),
O=c1cc(O)c2c(O)cc(O)cc2o1,> 100 µM (inactive),> 100 µM (inactive),> 100 µM (inactive),> 100 µM (inactive),> 100 µM (inactive),> 100 µM (inactive),> 100 µM (inactive),> 100 µM (inactive),> 100 µM (inactive),> 100 µM (inactive),> 100 µM (inactive),,> 100 µM (inactive),> 100 µM (inactive),> 100 µM (inactive),> 100 µM (inactive),> 100 µM (inactive),> 100 µM (inactive),> 100 µM (inactive)
C/C(=N\Nc1nc2ccccc2s1)c1cccnn1,0.381 µM (active),8.2 µM (inactive),5.5 µM (inactive),2.42 µM (inactive),0.753 µM (active),2.05 µM (inactive),2.61 µM (inactive),3.24 µM (inactive),1.92 µM (inactive),4.02 µM (inactive),8.63 µM (inactive),4.29 µM (inactive),1.63 µM (inactive),1.66 µM (inactive),2.23 µM (inactive),3.05 µM (inactive),,0.476 µM (active),1.79 µM (inactive)
C=CCNC(=S)N/N=C1\C(=O)N(CN2CCOCC2)c2ccc([N+](=O)[O-])cc21,2.7 µM (inactive),21.6 µM (inactive),24.3 µM (inactive),16.4 µM (inactive),15.4 µM (inactive),6.46 µM (inactive),44.9 µM (inactive),23.2 µM (inactive),18.7 µM (inactive),56.2 µM (inactive),30.8 µM (inactive),36.5 µM (inactive),20.6 µM (inactive),12.7 µM (inactive),10.4 µM (inactive),17.2 µM (inactive),32.3 µM (inactive),,24 µM (inactive)
C\C(=N/N=C1/C(=C\N(C)C)C(=O)NC(=O)N1C)c1ccc(Cl)cc1,15.8 µM (inactive),> 100 µM (inactive),32.6 µM (inactive),> 100 µM (inactive),> 100 µM (inactive),74.1 µM (inactive),> 100 µM (inactive),> 100 µM (inactive),> 100 µM (inactive),69.2 µM (inactive),> 100 µM (inactive),> 100 µM (inactive),> 100 µM (inactive),> 100 µM (inactive),87.7 µM (inactive),43.2 µM (inactive),58.2 µM (inactive),,72.1 µM (inactive)
